target: Growth hormone secretagogue receptor type 1 (Homo sapiens, UniProt Q92847); test: ChEBML_72507
Description: Inhibition of ghrelin binding to Growth hormone secretagogue receptor expressed in BHK cells

Sequence of Growth hormone secretagogue receptor type 1 (Q92847 whole entry): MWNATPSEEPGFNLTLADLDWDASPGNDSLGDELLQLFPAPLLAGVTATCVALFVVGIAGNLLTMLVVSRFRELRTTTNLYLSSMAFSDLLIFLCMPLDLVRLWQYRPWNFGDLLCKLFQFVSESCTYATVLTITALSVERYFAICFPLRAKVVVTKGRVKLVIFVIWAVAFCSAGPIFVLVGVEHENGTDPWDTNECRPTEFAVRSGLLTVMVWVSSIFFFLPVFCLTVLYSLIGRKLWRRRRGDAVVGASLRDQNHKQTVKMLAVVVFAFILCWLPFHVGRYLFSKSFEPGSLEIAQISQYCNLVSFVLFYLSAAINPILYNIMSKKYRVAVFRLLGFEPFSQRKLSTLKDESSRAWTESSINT

Compound | IC50 [µM]
CN(C)C(=O)CCn1c(O)c(CCc2ccccc2)n(Cc2ccc(-c3ccccc3-c3nnn[nH]3)cc2)c1=O [3-{(S)-2,5-Dioxo-4-phenethyl-3-[2'-(2H-tetrazol-5-yl)-biphenyl-4-ylmethyl]-imidazolidin-1-yl}-N,N-dimethyl-propionamide] | > 100
NCCCn1c(O)c(CCc2ccccc2)n(Cc2ccc(-c3ccccc3-c3nnn[nH]3)cc2)c1=O [(S)-3-(3-Amino-propyl)-5-phenethyl-1-[2'-(2H-tetrazol-5-yl)-biphenyl-4-ylmethyl]-imidazolidine-2,4-dione] | > 100
CN(C)CCCn1c(O)c(-c2ccccc2)n(Cc2ccc(-c3ccccc3-c3nnn[nH]3)cc2)c1=S [(S)-3-(3-Dimethylamino-propyl)-5-phenyl-1-[2'-(2H-tetrazol-5-yl)-biphenyl-4-ylmethyl]-2-thioxo-imidazolidin-4-one] | 35
CN(C)c1ccc(-n2c(O)c(CCc3ccccc3)n(Cc3ccc(-c4ccccc4-c4nnn[nH]4)cc3)c2=S)cc1 [(S)-3-(4-Dimethylamino-phenyl)-5-phenethyl-1-[2'-(2H-tetrazol-5-yl)-biphenyl-4-ylmethyl]-2-thioxo-imidazolidin-4-one] | > 100
CN(C)CCCn1c(O)c(Cc2ccccc2)n(Cc2ccc(-c3ccccc3-c3nnn[nH]3)cc2)c1=S [(S)-5-Benzyl-3-(3-dimethylamino-propyl)-1-[2'-(2H-tetrazol-5-yl)-biphenyl-4-ylmethyl]-2-thioxo-imidazolidin-4-one] | 35
